# Assay results published in patent US20230146795A1, “ENHANCEMENT OF ANTI-TUMOR ACTIVITY OF SHP2 INHIBITOR PYRIMIDINONE IN COMBINATION WITH NOVEL CANCER MEDICINES IN CANCERS” (TAIHO PHARMACEUTICAL CO., LTD., priority 2020, published 2023).
# Experiments:
# Assay type in all cases: cell-based
# [1] = test system: MKN45; test: Anti-proliferation assay (CellTiter-Glo 2.0), combination index, MKN45
# Protocol: (§1) Cell lines were obtained from ATCC or Health Science Research Resources Bank.
# (§2) Each cell lines were collected by ordinary method, then suspended in indicated medium containing 10% fetal bovine serum in table 3. The number of cells seeded per well was set to 500 cells/20 μL. […] The concentration of each anti-cancer reagents set to 8 concentrations including 0 nM. After adding the medicine to the cells, the cells were further incubated at 37° C. for 3 days under 5% CO2. Cell survival rates were calculated by adding 20 μL of CellTiter-Glo(registered trademark) 2. 0 (Promega) solution to each well, incubating the cells at room temperature for 10 minutes, and then measuring the chemiluminescence intensity of each well using a plate reader (ARVO).
# (§3) A combination index (CI) value at each combined concentration of the medicines was determined.
# [2] = test system: NCI-H358; test: Anti-proliferation assay (CellTiter-Glo 2.0), combination index, NCI-H358
# Protocol: as §1, §2, §3
# [3] = test system: RT4; test: Anti-proliferation assay (CellTiter-Glo 2.0), combination index, RT4
# Protocol: as §1, §2, §3
# [4] = Compound 1 13.7 + combination drug 370 nmol/L (1:27)
# [5] = Compound 1 41.2 + combination drug 1110 nmol/L (1:27)
# [6] = Compound 1 123 + combination drug 3330 nmol/L (1:27)
# [7] = Compound 1 370 + combination drug 10000 nmol/L (1:27)
# [8] = Compound 1 41.2 + combination drug 370 nmol/L (1:9)
# [9] = Compound 1 123 + combination drug 1110 nmol/L (1:9)
# [10] = Compound 1 370 + combination drug 3330 nmol/L (1:9)
# [11] = Compound 1 1110 + combination drug 10000 nmol/L (1:9)
# [12] = Compound 1:combination drug molar ratio 1:9
# [13] = Compound 1 1.52 + combination drug 123 nmol/L (1:81)
# [14] = Compound 1 13.7 + combination drug 1110 nmol/L (1:81)
# [15] = Compound 1 41.2 + combination drug 3330 nmol/L (1:81)
# [16] = Compound 1 123 + combination drug 10000 nmol/L (1:81)
# [17] = Compound 1 13.7 + combination drug 123 nmol/L (1:9)
# [18] = Compound 1 123 + combination drug 41.2 nmol/L (1:0.3)
# [19] = Compound 1 370 + combination drug 123 nmol/L (1:0.3)
# [20] = Compound 1 1110 + combination drug 370 nmol/L (1:0.3)
# [21] = Compound 1 3330 + combination drug 1110 nmol/L (1:0.3)
# [22] = Compound 1 10000 + combination drug 3330 nmol/L (1:0.3)
# [23] = Compound 1 12.3 nmol/L + Paclitaxel 1.46 nmol/L, molar ratio 1:0.1
# [24] = Compound 1 37.0 nmol/L + Paclitaxel 4.39 nmol/L, molar ratio 1:0.1
# [25] = Compound 1 111 nmol/L + Paclitaxel 13.2 nmol/L, molar ratio 1:0.1
# [26] = Compound 1 333 nmol/L + Paclitaxel 39.5 nmol/L, molar ratio 1:0.1
# [27] = Compound 1 1000 nmol/L + Paclitaxel 119 nmol/L, molar ratio 1:0.1
# [28] = Compound 1 4.12 nmol/L + Paclitaxel 0.14 nmol/L, molar ratio 1:0.03
# [29] = Compound 1 12.3 nmol/L + Paclitaxel 0.41 nmol/L, molar ratio 1:0.03
# [30] = Compound 1 37.0 nmol/L + Paclitaxel 1.23 nmol/L, molar ratio 1:0.03
# [31] = Compound 1 111 nmol/L + Paclitaxel 3.70 nmol/L, molar ratio 1:0.03
# [32] = Compound 1 333 nmol/L + Paclitaxel 11.1 nmol/L, molar ratio 1:0.03
# [33] = Compound 1 1000 nmol/L + Paclitaxel 33.3 nmol/L, molar ratio 1:0.03
# [34] = Compound 1 41.2 nmol/L + SN-38 2.06 nmol/L, molar ratio 1:0.05
# [35] = Compound 1 123 nmol/L + SN-38 6.17 nmol/L, molar ratio 1:0.05
# [36] = Compound 1 370 nmol/L + SN-38 18.5 nmol/L, molar ratio 1:0.05
# [37] = Compound 1 1110 nmol/L + SN-38 55.6 nmol/L, molar ratio 1:0.05
# [38] = Compound 1 4.57 nmol/L + SN-38 0.69 nmol/L, molar ratio 1:0.1
# [39] = Compound 1 13.7 nmol/L + SN-38 2.06 nmol/L, molar ratio 1:0.1
# [40] = Compound 1 41.2 nmol/L + SN-38 6.17 nmol/L, molar ratio 1:0.1
# [41] = Compound 1 123 nmol/L + SN-38 18.5 nmol/L, molar ratio 1:0.1
# [42] = Compound 1 370 nmol/L + SN-38 55.6 nmol/L, molar ratio 1:0.1
# [43] = Compound 1 1110 nmol/L + SN-38 167 nmol/L, molar ratio 1:0.1
# [44] = Compound 1 3330 nmol/L + SN-38 500 nmol/L, molar ratio 1:0.1
compound,measurement,setting,value
Cc1nc(NC(=O)N2CCC[C@H]2C(N)=O)sc1-c1ccnc(C(C)(C)C(F)(F)F)c1 [Alpelisib],CI,[1]; [4],0.700
same,Fa,[1]; [4],0.1253
same,CI,[1]; [5],0.426
same,Fa,[1]; [5],0.4108
same,CI,[1]; [6],0.655
same,Fa,[1]; [6],0.5920
same,CI,[1]; [7],0.772
same,Fa,[1]; [7],0.8141
same,Description (combinatory effect by CI),[1]; Compound 1:combination drug molar ratio 1:27,Synergy (0.3-0.7)
same,CI,[2]; [8],0.451
same,Fa,[2]; [8],0.1532
same,CI,[2]; [9],0.356
same,Fa,[2]; [9],0.4353
same,CI,[2]; [10],0.589
same,Fa,[2]; [10],0.5959
same,CI,[2]; [11],0.844
same,Fa,[2]; [11],0.7671
same,Description (combinatory effect by CI),[2]; [12],Synergy (0.3-0.7)
same,CI,[3]; [13],0.255
same,Fa,[3]; [13],0.0658
same,CI,[3]; [14],0.247
same,Fa,[3]; [14],0.2690
same,CI,[3]; [15],0.318
same,Fa,[3]; [15],0.4427
same,CI,[3]; [16],0.528
same,Fa,[3]; [16],0.5855
O=C(c1ccc(F)c(F)c1Nc1ccc(I)cc1F)N1CC(O)([C@@H]2CCCCN2)C1 [Cobimetinib],CI,[1]; [17],0.806
same,Fa,[1]; [17],0.2247
same,CI,[1]; [8],0.459
same,Fa,[1]; [8],0.6457
same,CI,[1]; [9],0.616
same,Fa,[1]; [9],0.8262
same,Description (combinatory effect by CI),[1]; [12],Synergy (0.3-0.7)
same,CI,[2]; [18],0.334
same,Fa,[2]; [18],0.3595
same,CI,[2]; [19],0.172
same,Fa,[2]; [19],0.5769
same,CI,[2]; [20],0.165
same,Fa,[2]; [20],0.7439
same,CI,[2]; [21],0.258
same,Fa,[2]; [21],0.8360
same,CI,[2]; [22],0.585
same,Fa,[2]; [22],0.8699
CC(=O)O[C@H]1C(=O)[C@@]2(C)[C@H]([C@H](OC(=O)c3ccccc3)[C@]3(O)C[C@H](OC(=O)[C@H](O)[C@@H](NC(=O)c4ccccc4)c4ccccc4)C(C)=C1C3(C)C)[C@]1(OC(C)=O)CO[C@@H]1C[C@@H]2O [Paclitaxel],CI,[1]; [23],0.106
same,Fa,[1]; [23],0.4372
same,CI,[1]; [24],0.222
same,Fa,[1]; [24],0.5083
same,CI,[1]; [25],0.307
same,Fa,[1]; [25],0.6577
same,CI,[1]; [26],0.409
same,Fa,[1]; [26],0.7864
same,CI,[1]; [27],0.957
same,Fa,[1]; [27],0.8179
same,CI,[3]; [28],0.690
same,Fa,[3]; [28],0.1066
same,CI,[3]; [29],0.828
same,Fa,[3]; [29],0.1742
same,CI,[3]; [30],0.386
same,Fa,[3]; [30],0.4157
same,CI,[3]; [31],0.366
same,Fa,[3]; [31],0.6114
same,CI,[3]; [32],0.371
same,Fa,[3]; [32],0.7739
same,CI,[3]; [33],0.681
same,Fa,[3]; [33],0.8306
same,Description,"[3]; combination effect, Compound 1 + Paclitaxel, molar ratio 1:0.03",Synergy (0.3-0.7)
SN-38,CI,[1]; [34],0.750
same,Fa,[1]; [34],0.3061
same,CI,[1]; [35],0.390
same,Fa,[1]; [35],0.6496
same,CI,[1]; [36],0.261
same,Fa,[1]; [36],0.8647
same,CI,[1]; [37],0.536
same,Fa,[1]; [37],0.8972
same,CI,[3]; [38],0.322
same,Fa,[3]; [38],0.2202
same,CI,[3]; [39],0.554
same,Fa,[3]; [39],0.2912
same,CI,[3]; [40],0.621
same,Fa,[3]; [40],0.4442
same,CI,[3]; [41],0.472
same,Fa,[3]; [41],0.6700
same,CI,[3]; [42],0.554
same,Fa,[3]; [42],0.7937
same,CI,[3]; [43],0.310
same,Fa,[3]; [43],0.9240
same,CI,[3]; [44],0.064
same,Fa,[3]; [44],0.9872
